# Tested on: rats
# Assay: Urinary hydrogen peroxide level after giving coffee to rats
# Assay type: in vivo
# Details: rats given coffee
# Source text: It is therefore desired to remove hydroxyhydroquinone from coffee.
smiles,measurement,value
Oc1ccc(O)c(O)c1 [hydroxyhydroquinone],generation of hydrogen peroxide in the bodies,caused by hydroxyhydroquinone
